{
  "source": "paper PMC10178848",
  "about": "“Modulating fast skeletal muscle contraction protects skeletal muscle in animal models of Duchenne muscular dystrophy” (The Journal of Clinical Investigation, 2023)",
  "key": {"[1]": {"biological_target": "78 proteins, including GPCR, ion channel, kinases, nuclear hormone receptors, and transporters", "test": "SAFETYscan E/IC50 ELECT off-target panel (whole panel)", "settings": "read-out: IC50 in all SAFETYscan assays", "method": "(§1) The specificity of EDG-5506 for fast skeletal myosin over other, unrelated proteins was confirmed using two off-target binding and activity screens. […] A second off-target panel (SAFETYscan E/IC50 ELECT, Eurofins DiscoverX) tested in vitro enzyme activity against 78 proteins, including GPCR, ion channel, kinases, nuclear hormone receptors, and transporters. In all assays, the IC50 of EDG-5506 was more than 10 μM (Supplemental Data File 1)."}, "[2]": {"tested_on": "fast rabbit psoas muscle fibers", "test": "Skinned fiber force, rabbit psoas", "settings": "Oryctolagus cuniculus, maximal force at pCa 4.5, read-out: IC50, force in single skinned fibers", "method": "Measurement of isometric force in skinned fibers from rabbit psoas, rat soleus, and rat cardiac trabeculae were performed as described previously ([65]) with an 802D fiber system (Aurora Scientific). Muscle bundles were thawed from –80°C and placed in relaxing solution. Single fibers were transferred to the testing apparatus with steel pins connected to a force transducer and motor (model 403A and 322C, Aurora Scientific), and collodion glue was applied. Temperature was set to 15°C for skeletal fibers and 30°C for rat cardiac trabeculae. The wells of the 802D were filled with different ratios of relaxing and activating pCa solutions as detailed previously ([65]). All control solutions contained 1% final DMSO. Traces were compared between control and compound runs to evaluate isometric force and calcium sensitivity."}, "mdx EDL muscle": {"tested_on": "mdx EDL muscle", "test": "Procion orange dye uptake after eccentric contraction", "set-up": "species or system mouse", "method": "For procion imaging, injury protocols were performed in 1% procion MX Dye (020 Brilliant Orange, Jacquard Products) and fixed in cold 4% paraformaldehyde and then cold 30% sucrose/PBS before cryosection. Laminin immunohistochemistry used rabbit polyclonal (L9393, Sigma-Aldrich, 1:20) and chicken anti-rabbit Alexa Fluor 488 (Invitrogen, 1:500). Slides were scanned at ×20 with Nikon Te-2000 dark-field microscopy and analyzed with Imaris software (Bitplane AG). Imaris’ surface component algorithm was used to detect procion-labeled fiber boundaries. Nonspecific procion staining of the peripheral tendon and outer layer of cells (where handling could cause injury) was excluded by applying a size and location filter (>2× average fiber size and located adjacent to laminin-positive fibers at the edge of the muscle). Each fiber was identified with an ID and color coded before calculation."}, "CDK11": {"biological_target": "T1, CDK11 (Homo sapiens, UniProt Q9BWU1)", "T1 construct": "purchased Eurofins DiscoverX (KINOMEscan; SAFETYscan E/IC50 ELECT)", "test": "KINOMEscan scanEDGE", "type": "binding", "settings": "20 uM"}, "CSNK1D": {"biological_target": "T2, CSNK1D (Homo sapiens, UniProt P48730)", "T2 construct": "purchased Eurofins DiscoverX (KINOMEscan; SAFETYscan E/IC50 ELECT)", "test": "KINOMEscan scanEDGE", "type": "binding", "settings": "20 uM"}, "ERBB4": {"biological_target": "T3, ERBB4 (Homo sapiens, UniProt Q15303)", "T3 construct": "purchased Eurofins DiscoverX (KINOMEscan; SAFETYscan E/IC50 ELECT)", "test": "KINOMEscan scanEDGE", "type": "binding", "settings": "20 uM"}, "PDPK1": {"biological_target": "T4, PDPK1 (Homo sapiens, UniProt O15530)", "T4 construct": "purchased Eurofins DiscoverX (KINOMEscan; SAFETYscan E/IC50 ELECT)", "test": "KINOMEscan scanEDGE", "type": "binding", "settings": "20 uM"}, "RET": {"biological_target": "T5, RET (Homo sapiens, UniProt P07949)", "T5 construct": "purchased Eurofins DiscoverX (KINOMEscan; SAFETYscan E/IC50 ELECT)", "test": "KINOMEscan scanEDGE", "type": "binding", "settings": "20 uM"}, "RIOK2": {"biological_target": "T6, RIOK2 (Homo sapiens, UniProt Q9BVS4)", "T6 construct": "purchased Eurofins DiscoverX (KINOMEscan; SAFETYscan E/IC50 ELECT)", "test": "KINOMEscan scanEDGE", "type": "binding", "settings": "20 uM"}, "[3]": {"biological_target": "T7, RSK2(Kin.Dom.1-N-terminal) (Homo sapiens, UniProt P51812)", "T7 construct": "RSK2(Kin.Dom.1-N-terminal); purchased Eurofins DiscoverX (KINOMEscan; SAFETYscan E/IC50 ELECT)", "test": "KINOMEscan scanEDGE", "type": "binding", "settings": "20 uM"}, "TRKA": {"biological_target": "T8, TRKA (Homo sapiens, UniProt P04629)", "T8 construct": "purchased Eurofins DiscoverX (KINOMEscan; SAFETYscan E/IC50 ELECT)", "test": "KINOMEscan scanEDGE", "type": "binding", "settings": "20 uM"}, "ADORA2A": {"biological_target": "T9, ADORA2A (Homo sapiens, UniProt P29274)", "T9 construct": "purchased Eurofins DiscoverX (KINOMEscan; SAFETYscan E/IC50 ELECT)", "T9 sequence (P29274 whole entry)": "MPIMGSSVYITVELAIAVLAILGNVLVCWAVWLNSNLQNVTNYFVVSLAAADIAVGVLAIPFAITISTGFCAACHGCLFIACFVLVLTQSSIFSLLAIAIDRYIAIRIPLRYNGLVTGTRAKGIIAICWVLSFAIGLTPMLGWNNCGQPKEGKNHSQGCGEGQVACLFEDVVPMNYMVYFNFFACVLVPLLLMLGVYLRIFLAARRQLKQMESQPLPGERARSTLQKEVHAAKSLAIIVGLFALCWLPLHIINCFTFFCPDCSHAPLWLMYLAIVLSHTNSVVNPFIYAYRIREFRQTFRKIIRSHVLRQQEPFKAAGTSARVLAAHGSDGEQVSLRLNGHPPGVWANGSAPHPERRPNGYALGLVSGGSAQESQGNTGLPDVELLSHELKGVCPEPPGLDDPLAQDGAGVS", "test": "SAFETYscan Calcium Flux", "type": "cell-based", "set-up": "dose or concentration left out as unconfirmed", "method": "as §1"}, "ADRA1A": {"biological_target": "T10, ADRA1A (Homo sapiens, UniProt P35348)", "T10 construct": "purchased Eurofins DiscoverX (KINOMEscan; SAFETYscan E/IC50 ELECT)", "T10 sequence (P35348 whole entry)": "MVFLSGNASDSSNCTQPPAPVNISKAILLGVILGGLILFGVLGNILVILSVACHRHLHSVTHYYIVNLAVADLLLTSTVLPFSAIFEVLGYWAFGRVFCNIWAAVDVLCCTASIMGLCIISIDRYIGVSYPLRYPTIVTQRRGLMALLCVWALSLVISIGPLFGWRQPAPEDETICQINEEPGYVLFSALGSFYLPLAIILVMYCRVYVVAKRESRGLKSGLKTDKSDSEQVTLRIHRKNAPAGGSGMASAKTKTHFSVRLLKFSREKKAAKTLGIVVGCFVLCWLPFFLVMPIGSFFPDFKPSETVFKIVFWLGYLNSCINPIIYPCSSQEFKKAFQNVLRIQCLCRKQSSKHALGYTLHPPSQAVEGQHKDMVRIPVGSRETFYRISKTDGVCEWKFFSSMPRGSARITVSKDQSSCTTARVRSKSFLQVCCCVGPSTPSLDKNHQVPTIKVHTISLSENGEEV", "test": "SAFETYscan Calcium Flux", "type": "cell-based", "set-up": "dose or concentration left out as unconfirmed", "method": "as §1"}, "AVPR1A": {"biological_target": "T11, AVPR1A (Homo sapiens, UniProt P37288)", "T11 construct": "purchased Eurofins DiscoverX (KINOMEscan; SAFETYscan E/IC50 ELECT)", "T11 sequence (P37288 whole entry)": "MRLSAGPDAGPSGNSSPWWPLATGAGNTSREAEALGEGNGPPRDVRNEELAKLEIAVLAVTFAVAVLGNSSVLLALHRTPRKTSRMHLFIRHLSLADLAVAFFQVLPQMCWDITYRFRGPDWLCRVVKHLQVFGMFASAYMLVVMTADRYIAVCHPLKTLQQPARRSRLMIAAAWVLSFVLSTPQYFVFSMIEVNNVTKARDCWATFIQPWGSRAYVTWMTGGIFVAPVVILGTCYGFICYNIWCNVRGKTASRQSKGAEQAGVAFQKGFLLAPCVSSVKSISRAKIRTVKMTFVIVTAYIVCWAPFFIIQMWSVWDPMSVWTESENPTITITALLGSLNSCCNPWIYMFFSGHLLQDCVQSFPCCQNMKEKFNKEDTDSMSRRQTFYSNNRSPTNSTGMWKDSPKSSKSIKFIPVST", "test": "SAFETYscan Calcium Flux", "type": "cell-based", "set-up": "dose or concentration left out as unconfirmed", "method": "as §1"}, "CCKAR": {"biological_target": "T12, CCKAR (Homo sapiens, UniProt P32238)", "T12 construct": "purchased Eurofins DiscoverX (KINOMEscan; SAFETYscan E/IC50 ELECT)", "T12 sequence (P32238 whole entry)": "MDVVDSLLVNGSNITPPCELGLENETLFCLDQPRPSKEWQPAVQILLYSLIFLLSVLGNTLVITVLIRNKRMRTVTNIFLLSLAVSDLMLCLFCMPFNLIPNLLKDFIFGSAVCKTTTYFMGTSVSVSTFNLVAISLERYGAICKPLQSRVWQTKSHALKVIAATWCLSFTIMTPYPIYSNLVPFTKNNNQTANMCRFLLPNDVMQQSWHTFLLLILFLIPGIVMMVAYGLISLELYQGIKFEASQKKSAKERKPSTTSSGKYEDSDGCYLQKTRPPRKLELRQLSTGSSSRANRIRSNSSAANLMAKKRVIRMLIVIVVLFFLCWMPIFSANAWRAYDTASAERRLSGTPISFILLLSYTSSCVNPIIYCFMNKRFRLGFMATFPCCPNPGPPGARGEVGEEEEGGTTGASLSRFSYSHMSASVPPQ", "test": "SAFETYscan Calcium Flux", "type": "cell-based", "set-up": "dose or concentration left out as unconfirmed", "method": "as §1"}, "CHRM1": {"biological_target": "T13, CHRM1 (Homo sapiens, UniProt P11229)", "T13 construct": "purchased Eurofins DiscoverX (KINOMEscan; SAFETYscan E/IC50 ELECT)", "T13 sequence (P11229 whole entry)": "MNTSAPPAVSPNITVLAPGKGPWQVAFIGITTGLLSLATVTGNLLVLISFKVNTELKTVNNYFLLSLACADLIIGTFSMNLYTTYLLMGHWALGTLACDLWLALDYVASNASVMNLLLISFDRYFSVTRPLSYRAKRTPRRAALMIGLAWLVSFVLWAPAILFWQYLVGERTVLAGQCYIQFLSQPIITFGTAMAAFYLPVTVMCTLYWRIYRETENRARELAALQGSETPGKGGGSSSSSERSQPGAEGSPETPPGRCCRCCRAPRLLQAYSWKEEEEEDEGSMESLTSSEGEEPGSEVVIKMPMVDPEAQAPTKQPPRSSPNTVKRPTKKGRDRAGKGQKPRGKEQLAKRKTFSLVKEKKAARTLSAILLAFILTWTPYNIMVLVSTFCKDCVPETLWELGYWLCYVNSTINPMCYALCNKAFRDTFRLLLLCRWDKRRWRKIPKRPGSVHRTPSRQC", "test": "SAFETYscan Calcium Flux", "type": "cell-based", "set-up": "dose or concentration left out as unconfirmed", "method": "as §1"}, "CHRM3": {"biological_target": "T14, CHRM3 (Homo sapiens, UniProt P20309)", "T14 construct": "purchased Eurofins DiscoverX (KINOMEscan; SAFETYscan E/IC50 ELECT)", "T14 sequence (P20309 whole entry)": "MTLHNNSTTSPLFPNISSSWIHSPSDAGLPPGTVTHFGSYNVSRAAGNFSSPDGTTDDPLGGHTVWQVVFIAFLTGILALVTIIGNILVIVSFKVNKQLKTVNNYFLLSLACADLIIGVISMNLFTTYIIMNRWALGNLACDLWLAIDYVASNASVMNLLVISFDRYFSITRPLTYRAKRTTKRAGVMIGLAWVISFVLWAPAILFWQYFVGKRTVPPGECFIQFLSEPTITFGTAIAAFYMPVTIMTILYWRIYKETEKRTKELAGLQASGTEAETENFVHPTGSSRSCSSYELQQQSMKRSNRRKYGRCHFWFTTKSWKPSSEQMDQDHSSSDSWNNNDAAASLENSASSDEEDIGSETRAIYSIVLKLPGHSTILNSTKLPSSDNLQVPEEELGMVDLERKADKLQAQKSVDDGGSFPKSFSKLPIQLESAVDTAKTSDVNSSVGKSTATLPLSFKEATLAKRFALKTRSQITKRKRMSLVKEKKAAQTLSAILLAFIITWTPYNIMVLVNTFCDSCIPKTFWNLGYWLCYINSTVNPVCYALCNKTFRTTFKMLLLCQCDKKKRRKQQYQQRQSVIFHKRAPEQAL", "test": "SAFETYscan Calcium Flux", "type": "cell-based", "set-up": "dose or concentration left out as unconfirmed", "method": "as §1"}, "EDNRA": {"biological_target": "T15, EDNRA (Homo sapiens, UniProt P25101)", "T15 construct": "purchased Eurofins DiscoverX (KINOMEscan; SAFETYscan E/IC50 ELECT)", "T15 sequence (P25101 21-427)": "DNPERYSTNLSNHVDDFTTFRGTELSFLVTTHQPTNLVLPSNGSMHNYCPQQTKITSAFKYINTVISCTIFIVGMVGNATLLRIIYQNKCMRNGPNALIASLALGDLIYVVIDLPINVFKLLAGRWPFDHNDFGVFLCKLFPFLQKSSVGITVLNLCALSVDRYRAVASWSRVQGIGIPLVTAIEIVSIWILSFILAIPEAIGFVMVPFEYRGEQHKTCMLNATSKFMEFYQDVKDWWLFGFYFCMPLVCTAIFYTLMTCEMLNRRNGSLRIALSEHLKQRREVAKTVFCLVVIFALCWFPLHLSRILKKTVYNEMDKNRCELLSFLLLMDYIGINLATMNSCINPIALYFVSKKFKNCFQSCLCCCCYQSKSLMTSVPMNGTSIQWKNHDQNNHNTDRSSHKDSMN", "test": "SAFETYscan Calcium Flux", "type": "cell-based", "set-up": "dose or concentration left out as unconfirmed", "method": "as §1"}, "HRH1": {"biological_target": "T16, HRH1 (Homo sapiens, UniProt P35367)", "T16 construct": "purchased Eurofins DiscoverX (KINOMEscan; SAFETYscan E/IC50 ELECT)", "T16 sequence (P35367 whole entry)": "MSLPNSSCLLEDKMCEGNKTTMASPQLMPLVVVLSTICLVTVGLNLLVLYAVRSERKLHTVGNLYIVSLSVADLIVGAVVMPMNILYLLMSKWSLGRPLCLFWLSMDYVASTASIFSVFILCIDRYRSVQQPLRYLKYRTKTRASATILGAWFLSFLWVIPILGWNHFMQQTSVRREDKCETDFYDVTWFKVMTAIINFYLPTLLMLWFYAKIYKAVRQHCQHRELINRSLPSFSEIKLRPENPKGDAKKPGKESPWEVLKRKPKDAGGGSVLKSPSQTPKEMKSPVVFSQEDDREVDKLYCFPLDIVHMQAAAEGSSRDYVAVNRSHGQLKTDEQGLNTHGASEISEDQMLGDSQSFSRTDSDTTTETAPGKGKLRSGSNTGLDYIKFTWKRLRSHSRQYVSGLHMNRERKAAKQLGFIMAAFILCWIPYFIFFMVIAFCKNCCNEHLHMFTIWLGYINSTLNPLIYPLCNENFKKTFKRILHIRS", "test": "SAFETYscan Calcium Flux", "type": "cell-based", "set-up": "dose or concentration left out as unconfirmed", "method": "as §1"}, "HTR2A": {"biological_target": "T17, HTR2A (Homo sapiens, UniProt P28223)", "T17 construct": "purchased Eurofins DiscoverX (KINOMEscan; SAFETYscan E/IC50 ELECT)", "T17 sequence (P28223 whole entry)": "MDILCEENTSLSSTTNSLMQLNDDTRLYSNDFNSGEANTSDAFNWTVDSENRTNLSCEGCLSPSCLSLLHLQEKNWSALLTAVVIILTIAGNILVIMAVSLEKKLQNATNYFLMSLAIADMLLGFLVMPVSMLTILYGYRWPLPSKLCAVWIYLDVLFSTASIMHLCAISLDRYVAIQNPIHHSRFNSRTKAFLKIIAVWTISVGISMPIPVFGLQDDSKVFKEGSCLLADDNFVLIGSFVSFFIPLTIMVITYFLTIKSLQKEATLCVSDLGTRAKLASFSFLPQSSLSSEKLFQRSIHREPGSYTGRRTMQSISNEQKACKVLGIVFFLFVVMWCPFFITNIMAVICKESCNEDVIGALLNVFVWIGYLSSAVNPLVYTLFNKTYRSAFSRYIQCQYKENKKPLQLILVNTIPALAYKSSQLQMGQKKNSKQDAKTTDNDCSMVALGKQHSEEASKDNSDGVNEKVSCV", "test": "SAFETYscan Calcium Flux", "type": "cell-based", "set-up": "dose or concentration left out as unconfirmed", "method": "as §1"}, "HTR2B": {"biological_target": "T18, HTR2B (Homo sapiens, UniProt P41595)", "T18 construct": "purchased Eurofins DiscoverX (KINOMEscan; SAFETYscan E/IC50 ELECT)", "T18 sequence (P41595 whole entry)": "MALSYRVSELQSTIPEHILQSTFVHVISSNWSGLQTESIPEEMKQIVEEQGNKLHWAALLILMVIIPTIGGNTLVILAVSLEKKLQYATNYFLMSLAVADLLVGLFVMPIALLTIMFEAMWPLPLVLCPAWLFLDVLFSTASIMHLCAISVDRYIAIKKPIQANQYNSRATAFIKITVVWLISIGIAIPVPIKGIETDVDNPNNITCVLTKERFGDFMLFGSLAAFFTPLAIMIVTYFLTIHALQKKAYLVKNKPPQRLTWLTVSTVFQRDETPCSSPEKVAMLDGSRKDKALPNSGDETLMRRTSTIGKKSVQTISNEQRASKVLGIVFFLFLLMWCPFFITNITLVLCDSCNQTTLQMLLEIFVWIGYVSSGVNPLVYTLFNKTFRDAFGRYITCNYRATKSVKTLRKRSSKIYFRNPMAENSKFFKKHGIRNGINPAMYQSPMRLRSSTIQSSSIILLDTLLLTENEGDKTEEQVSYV", "test": "SAFETYscan Calcium Flux", "type": "cell-based", "set-up": "dose or concentration left out as unconfirmed", "method": "as §1"}, "[4]": {"settings": "read-out: Max Response (%) (Agonist)"}, "[5]": {"settings": "read-out: Max Response (%) (Antagonist)"}},
  "note": "Where two headings read alike, the source gives them in different places.",
  "data": [
    {"smiles": "O=c1ccc(-c2cnc(OCC(F)(F)F)nc2)nn1Cc1cncc(F)c1", "note": "[EDG-5506]", "values": [
      {"measurement": "IC50", "setting": "[1]", "result": "> 10000", "unit": "nM"},
      {"measurement": "IC50", "setting": "[2]", "result": 700, "unit": "nM"},
      {"measurement": "membrane-impermeable dye (procion orange) uptake", "setting": "mdx EDL muscle", "result": "effectively reduced dye uptake"},
      {"measurement": "binding, % of control", "setting": "CDK11", "result": "95 % of control"},
      {"measurement": "binding, % of control", "setting": "CSNK1D", "result": "94 % of control"},
      {"measurement": "binding, % of control", "setting": "ERBB4", "result": "93 % of control"},
      {"measurement": "binding, % of control", "setting": "PDPK1", "result": "95 % of control"},
      {"measurement": "binding, % of control", "setting": "RET", "result": "52 % of control"},
      {"measurement": "binding, % of control", "setting": "RIOK2", "result": "80 % of control"},
      {"measurement": "binding, % of control", "setting": "[3]", "result": "90 % of control"},
      {"measurement": "binding, % of control", "setting": "TRKA", "result": "98 % of control"},
      {"measurement": "Emax", "setting": "ADORA2A; [4]", "result": 0, "unit": "%"},
      {"measurement": "Emax", "setting": "ADORA2A; [5]", "result": 0, "unit": "%"},
      {"measurement": "Emax", "setting": "ADRA1A; [4]", "result": 2.19, "unit": "%"},
      {"measurement": "Emax", "setting": "ADRA1A; [5]", "result": 18.5, "unit": "%"},
      {"measurement": "Emax", "setting": "AVPR1A; [4]", "result": 0, "unit": "%"},
      {"measurement": "Emax", "setting": "AVPR1A; [5]", "result": 0, "unit": "%"},
      {"measurement": "Emax", "setting": "CCKAR; [4]", "result": 1.03, "unit": "%"},
      {"measurement": "Emax", "setting": "CCKAR; [5]", "result": 5.54, "unit": "%"},
      {"measurement": "Emax", "setting": "CHRM1; [4]", "result": 0.16, "unit": "%"},
      {"measurement": "Emax", "setting": "CHRM1; [5]", "result": 0, "unit": "%"},
      {"measurement": "Emax", "setting": "CHRM3; [4]", "result": 2.48, "unit": "%"},
      {"measurement": "Emax", "setting": "CHRM3; [5]", "result": 2.14, "unit": "%"},
      {"measurement": "Emax", "setting": "EDNRA; [4]", "result": 0, "unit": "%"},
      {"measurement": "Emax", "setting": "EDNRA; [5]", "result": 0, "unit": "%"},
      {"measurement": "Emax", "setting": "HRH1; [4]", "result": 0, "unit": "%"},
      {"measurement": "Emax", "setting": "HRH1; [5]", "result": 25.2, "unit": "%"},
      {"measurement": "Emax", "setting": "HTR2A; [4]", "result": 3.31, "unit": "%"},
      {"measurement": "Emax", "setting": "HTR2A; [5]", "result": 0.4, "unit": "%"},
      {"measurement": "Emax", "setting": "HTR2B; [4]", "result": 5.88, "unit": "%"},
      {"measurement": "Emax", "setting": "HTR2B; [5]", "result": 2.49, "unit": "%"}
    ]}
  ]
}
